Drawing on US20100069395A1, “Pyrazolo[1,5-a]pyrimidine-3-carboxylic acid compounds as protein kinase inhibitors” (priority 2006, published 2010), this text covers melting point for 7 molecules.

In turn, `COc1ccc(-c2cnn3cc(C(=O)Nc4c(C)cccc4C)cnc23)cc1OC` [Example 5, 3-(3,4-Dimethoxy-phenyl)-pyrazolo[1,5-a]pyrimidine-6-carboxylic acid (2,6-dimethylphenyl)-amide] showed a melting point of 230 to 232 °C.
Consider `Cc1ccc(NC(=O)c2cccc(C(F)(F)F)c2)cc1NC(=O)c1cnc2ccnn2c1` [Example 2, Pyrazolo[1,5-a]pyrimidine-6-carboxylic acid[2-methyl-5-(3-trifluoromethyl-benzoylamino)-phenyl]-amide], for which the melting point lay in the range of 239 to 241 °C.
Turning to `Cc1cccc(C)c1NC(=O)c1cnc2c(-c3cccc(N4CCN(C)CC4)c3)cnn2c1` [Example 4, 3-[3-(4-Methyl-piperazin-1-yl)-phenyl]-pyrazolo[1,5-a]pyrimidine-6-carboxylic acid(2,6-dimethyl-phenyl)-amide], the melting point fell in the range of 227 to 229 °C.
The same measure for `Cc1ccc(C(=O)Nc2cccc(C(F)(F)F)c2)cc1NC(=O)C1=CNc2ccnn2C1` [Example 3, 4,7-Dihydro-pyrazolo[1,5-a]pyrimidine-6-carboxylic acid [2-methyl-5-(3-trifluoromethyl-phenylcarbamoyl)-phenyl]-amide]: 259 to 263 °C.
As to `Cc1ccc(NC(=O)c2ccc(F)c(C(F)(F)F)c2)cc1NC(=O)c1cnc2ccnn2c1` [Example 6, Pyrazolo[1,5-a]pyrimidine-6-carboxylic acid[5-(4-fluoro-3-trifluoromthyl-benzoylamino)-2-methyl-phenyl]-amide], the melting point was in the range of 267 to 269 °C.
The same measure for `COc1ccc(C(=O)Nc2ccc(C)c(NC(=O)c3cnc4ccnn4c3)c2)cc1C(F)(F)F` [Example 7, Pyrazolo[1,5-a]pyrimidine-6-carboxylic acid[5-(4-methoxy-3-trifluoromethyl-benzoylamino)-2-methyl-phenyl]-amide]: 256 to 258 °C; for `Cc1ccc(C(=O)Nc2cccc(C(F)(F)F)c2)cc1NC(=O)c1cnc2ccnn2c1` [Example 1, Pyrazolo[1,5-a]pyrimidine-6-carboxylic acid[2-methyl-5-(3-trifluoromethyl-phenylcarbamoyl)-phenyl]-amide]: 222 to 224 °C.

As a reminder, the melting point is the temperature of the solid-liquid transition.
